pIC50: −log10 of the molar value. Read-outs that look alike come from different tables or passages of the source.
Key:
PC3 cells = experiment: PC3 growth inhibition (Cell-titer glo, 72 hours); format: cell-based; settings: Homo sapiens, read-out: Percent Inhibition (PC3 growth inhibition); for inhibition at 1.667 µM: compound concentration 1.667 μM
In short: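 Compounds in AIM serum-free medium were applied for 72 h at 37 °C, 5% CO2 to PC3 cells plated overnight from RPMI1640 culture. Luminescence after 10 min CellTiter-Glo, normalised to DMSO, gave % viability at 1 μM or 1.667 μM, or GI50/LD50.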

hNAMPT protein = hNAMPT protein (Homo sapiens (Human), UniProt P43490); experiment: NAMPT enzyme assay (TR-FRET/HTRF, BodiPY ligand, anti 6His-Tb); format: binding; settings: for pIC50: NAMPT IC50 range class, read-out: IC50; for inhibition at 1 µM: read-out: Percent Inhibition
hNAMPT protein, sequence (P43490 whole entry): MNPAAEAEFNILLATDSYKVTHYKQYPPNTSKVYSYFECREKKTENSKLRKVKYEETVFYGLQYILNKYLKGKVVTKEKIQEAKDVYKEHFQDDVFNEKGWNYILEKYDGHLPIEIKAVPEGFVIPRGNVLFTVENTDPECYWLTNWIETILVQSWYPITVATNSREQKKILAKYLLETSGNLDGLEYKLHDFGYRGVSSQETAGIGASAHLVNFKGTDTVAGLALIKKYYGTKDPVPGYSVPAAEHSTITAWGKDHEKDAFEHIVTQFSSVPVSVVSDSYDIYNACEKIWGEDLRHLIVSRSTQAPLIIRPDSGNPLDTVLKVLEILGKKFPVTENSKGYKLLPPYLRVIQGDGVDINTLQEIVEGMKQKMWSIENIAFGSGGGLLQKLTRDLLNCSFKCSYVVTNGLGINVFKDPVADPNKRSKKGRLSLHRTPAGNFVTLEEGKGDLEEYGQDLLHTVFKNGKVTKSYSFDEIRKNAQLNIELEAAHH
In short: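 Compound or DMSO was incubated for 1 h at room temperature, protected from light, with BodiPY ligand and hNAMPT labelled by terbium anti-6His antibody. The 520 nm to 486 nm emission ratio after 320 nm excitation gave inhibition versus vehicle, from which concentration-response curves yielded IC50.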

[1] = PC-3, compound concentration 1 μM, PC3 cells, 72 hours, Cell-titer glo
[2] = PC-3, PC3 cells, 72 hours, Cell-titer glo

| Compound | inhibition at 1 µM (PC3 cells; [1]) | pIC50 (hNAMPT protein) | inhibition at 1 µM (hNAMPT protein; compound concentration 1 μM) | inhibition at 1 µM (hNAMPT protein) | inhibition at 1.667 µM (PC3 cells; [2]) | inhibition at 1 µM (PC3 cells; PC-3, 72 h) |
| --- | --- | --- | --- | --- | --- | --- |
| O=C(NCCCn1ccnc1)c1ccc2nc(-c3ccccc3)c(N3CCCC3)nc2c1 [Compound I-124, N-[3-(1H-imidazol-1-yl)propyl]-2-phenyl-3-(pyrrolidin-1-yl)quinoxaline-6-carboxamide] | 27% | 5.70 to 6.00 | 38% | – | – | – |
| CS(=O)(=O)N1CCN(c2nc3ccc(C(=O)NCCCn4ccnc4)cc3nc2-c2ccccc2)CC1 [Compound I-125, N-[3-(1H-imidazol-1-yl)propyl]-2-[4-(methylsulfonyl)piperazin-1-yl]-3-phenylquinoxaline-6-carboxamide] | -7% | 6.30 to 7.00 | 73% | – | – | – |
| CN(c1nc2cc(C(=O)NCCCn3ccnc3)ccc2nc1-c1ccccc1)C1CC1 [Compound I-126, 3-[cyclopropyl(methyl)amino]-N-[3-(1H-imidazol-1-yl)propyl]-2-phenylquinoxaline-6-carboxamide] | 93% | 5.00 to 5.70 | 12% | – | – | – |
| CN1CCN(c2nc3cc(C(=O)NCCCn4ccnc4)ccc3nc2-c2ccccc2)CC1=O [Compound I-127, N-[3-(1H-imidazol-1-yl)propyl]-3-(4-methyl-3-oxopiperazin-1-yl)-2-phenylquinoxaline-6-carboxamide] | 95% | 5.00 to 5.70 | 16% | – | – | – |
| CN1CCN(c2nc3ccc(C(=O)NCCCn4ccnc4)cc3nc2-c2ccccc2)CC1 [Compound I-128, N-[3-(1H-imidazol-1-yl)propyl]-2-(4-methylpiperazin-1-yl)-3-phenylquinoxaline-6-carboxamide] | -7% | 6.00 to 6.30 | 60% | – | – | – |
| CS(=O)(=O)N1CCN(c2nc3cc(C(=O)NCCCn4ccnc4)ccc3nc2-c2ccccc2)CC1 [Compound I-129, N-[3-(1H-imidazol-1-yl)propyl]-3-[4-(methylsulfonyl)piperazin-1-yl]-2-phenylquinoxaline-6-carboxamide] | -6% | 6.30 to 7.00 | 70% | – | – | – |
| O=C(NCCc1ccccn1)c1ccc2nc(N3CCC(C4CCNCC4)CC3)c(-c3ccccc3)nc2c1 [Compound I-130, 2-(4,4′-Bipiperidin-1-yl)-3-phenyl-N-[2-(pyridin-2-yl)ethyl]quinoxaline-6-carboxamide] | 93% | 6.30 to 7.00 | – | 81% | – | – |
| N#Cc1ccc(-c2nc3ccc(C(=O)NCCCn4ccnc4)cc3nc2-c2ccccc2)cc1 [Compound I-131, 2-(4-cyanophenyl)-N-[3-(1H-imidazol-1-yl)propyl]-3-phenylquinoxaline-6-carboxamide] | -8% | 6.00 to 6.30 | 64% | – | – | – |
| O=C(NCc1ccc2[nH]cnc2c1)c1ccc2nc(N3CCOCC3)c(-c3ccc(F)cc3)nc2c1 [Compound I-132, N-(1H-Benzimidazol-5-ylmethyl)-3-(4-fluorophenyl)-2-(morpholin-4-yl)quinoxaline-6-carboxamide] | – | 6.00 to 6.30 | – | 56% | 2% | – |
| O=C(NCc1ccc2cn[nH]c2c1)c1ccc2nc(N3CCCCC3)c(-c3ccc(F)cc3)nc2c1 [Compound I-133, 3-(4-fluorophenyl)-N-(1H-indazol-6-ylmethyl)-2-(piperidin-1-yl)quinoxaline-6-carboxamide] | – | 6.30 to 7.00 | 68% | – | 3% | – |
| COc1cccc(-c2nc3ccc(C(=O)NCCc4ncc[nH]4)cc3nc2-c2cccc(OC)c2)c1 [Compound I-134, N-[2-(1H-imidazol-2-yl)ethyl]-2,3-bis(3-methoxyphenyl)quinoxaline-6-carboxamide] | -3% | 6.00 to 6.30 | 65% | – | – | – |
| CC(=O)Nc1ccccc1-c1nc2cc(C(=O)NCCCn3ccnc3)ccc2nc1-c1ccccc1 [Compound I-135, 3-(2-acetamidophenyl)-N-[3-(1H-imidazol-1-yl)propyl]-2-phenylquinoxaline-6-carboxamide] | 101% | 5.00 to 5.70 | 16% | – | – | – |
| O=C(NCCCn1ccnc1)c1ccc2nc(N3CCC(N4CCCC4=O)CC3)c(-c3ccccc3)nc2c1 [Compound I-136, N-[3-(1H-imidazol-1-yl)propyl]-2-[4-(2-oxopyrrolidin-1-yl)piperidin-1-yl]-3-phenylquinoxaline-6-carboxamide] | -7% | 6.30 to 7.00 | 83% | – | – | – |
| O=C(NCCCn1ccnc1)c1ccc2nc(N3CCC3)c(-c3ccccc3)nc2c1 [Compound I-137, 2-(Azetidin-1-yl)-N-[3-(1H-imidazol-1-yl)propyl]-3-phenylquinoxaline-6-carboxamide] | – | 5.00 to 5.70 | – | 18% | – | 6% |
| O=C(NCCCc1cncnc1)c1ccc2nc(N3CCCCC3)c(-c3ccc(F)cc3)nc2c1 [Compound I-138, 3-(4-fluorophenyl)-2-(piperidin-1-yl)-N-[3-(pyrimidin-5-yl)propyl]quinoxaline-6-carboxamide] | – | 6.30 to 7.00 | 86% | – | > 99% | – |
| O=C(NCCn1nnnc1S)c1ccc2nc(-c3ccc(F)cc3)c(-c3ccc(F)cc3)nc2c1 [Compound I-139, 2,3-bis(4-fluorophenyl)-N-[2-(5-sulfanyl-1H-tetrazol-1-yl)ethyl]quinoxaline-6-carboxamide] | 99% | 5.70 to 6.00 | 41% | – | – | – |
| O=C(NCCCn1ccnc1)c1ccc2nc(-c3ccc4c(c3)CCO4)c(-c3ccccc3)nc2c1 [Compound I-140, 2-(2,3-dihydro-1-benzofuran-5-yl)-N-[3-(1H-imidazol-1-yl)propyl]-3-phenylquinoxaline-6-carboxamide] | -8% | 6.30 to 7.00 | 79% | – | – | – |
| O=C(NCCCn1ccnc1)c1ccc2nc(C3=CCOCC3)c(-c3ccccc3)nc2c1 [Compound I-141, 2-(3,6-dihydro-2H-pyran-4-yl)-N-[3-(1H-imidazol-1-yl)propyl]-3-phenylquinoxaline-6-carboxamide] | -8% | 6.30 to 7.00 | 74% | – | – | – |
| N#Cc1nc2ccc(C(=O)NCCCn3ccnc3)cc2nc1-c1ccccc1 [Compound I-142, 2-Cyano-N-[3-(1H-imidazol-1-yl)propyl]-3-phenylquinoxaline-6-carboxamide] | 95% | 5.00 to 5.70 | – | 24% | – | – |
| Cn1cnc2cc(-c3nc4cc(C(=O)NCCCn5ccnc5)ccc4nc3-c3ccccc3)ccc21 [Compound I-143, N-[3-(1H-imidazol-1-yl)propyl]-3-(1-methyl-1H-benzimidazol-5-yl)-2-phenylquinoxaline-6-carboxamide] | 103% | 5.00 to 5.70 | 3% | – | – | – |
| O=C(NCCCn1ccnc1)c1ccc2nc(-c3ccccc3)c(N3CCOCC3)nc2c1 [Compound I-144, N-[3-(1H-imidazol-1-yl)propyl]-3-(morpholin-4-yl)-2-phenylquinoxaline-6-carboxamide] | 2% | 5.70 to 6.00 | 43% | – | – | – |
| NS(=O)(=O)c1ccc(-c2nc3ccc(C(=O)NCCCn4ccnc4)cc3nc2-c2ccccc2)cc1 [Compound I-145, N-[3-(1H-imidazol-1-yl)propyl]-3-phenyl-2-(4-sulfamoylphenyl)quinoxaline-6-carboxamide] | -7% | 6.30 to 7.00 | 76% | – | – | – |
| O=C(NCCCn1ccnc1)c1ccc2nc(N3CCN4CCCC4C3)c(-c3ccccc3)nc2c1 (stereo not drawn) [Compound I-146, 2-(hexahydropyrrolo[1,2-a]pyrazin-2(1H)-yl)-N-[3-(1H-imidazol-1-yl)propyl]-3-phenylquinoxaline-6-carboxamide] | -7% | 6.30 to 7.00 | 76% | – | – | – |
| O=C(NCc1ccc2nccn2c1)c1ccc2nc(N3CCOCC3)c(-c3ccc(F)cc3)nc2c1 [Compound I-147, 3-(4-fluorophenyl)-N-(imidazo[1,2-a]pyridin-6-ylmethyl)-2-(morpholin-4-yl)quinoxaline-6-carboxamide] | – | > 7.00 | 95% | – | 2% | – |
| CC(C)(C)OC(=O)NCc1ccc(-c2nc3ccc(C(=O)NCCCn4ccnc4)cc3nc2-c2ccccc2)cc1 [Compound I-148, tert-Butyl [4-(6-{[3-(1H-imidazol-1-yl)propyl]carbamoyl}-3-phenylquinoxalin-2-yl)benzyl]carbamate] | 1% | 6.30 to 7.00 | – | 85% | – | – |
| O=C(NCCCn1ccnc1)c1ccc2nc(-c3ccc4[nH]ccc4c3)c(-c3ccccc3)nc2c1 [Compound I-149, N-[3-(1H-imidazol-1-yl)propyl]-2-(1H-indol-5-yl)-3-phenylquinoxaline-6-carboxamide] | -8% | 6.30 to 7.00 | 86% | – | – | – |
| CS(=O)(=O)C1CCN(c2nc3ccc(C(=O)NCCCn4ccnc4)cc3nc2-c2ccccc2)C1 (stereo not drawn) [Compound I-150, N-[3-(1H-imidazo-1-yl)propyl]-2-[3-(methylsulfonyl)pyrrolidin-1-yl]-3-phenylquinoxaline-6-carboxamide] | -7% | 6.30 to 7.00 | 75% | – | – | – |
| Cn1ccnc1CCNC(=O)c1ccc2nc(-c3ccc(F)cc3)c(-c3ccc(F)cc3)nc2c1 [Compound I-151, 2,3-Bis(4-fluorophenyl)-N-[2-(1-methyl-1H-imidazol-2-yl)ethyl]quinoxaline-6-carboxamide] | 96% | 6.30 to 7.00 | 79% | – | – | – |
